Here are results for two substances from paper PMC3768135 (Bioorganic & medicinal chemistry, 2013).

One assay has as its target EcFtsZ (Escherichia coli, UniProt P0A9A6). Kind of assay: GTPase assay, malachite green phosphate detection. The format is biochemical.
For the next assay, the target named is SaFtsZ (Staphylococcus aureus, UniProt P0A031). Kind of assay: GTPase assay, malachite green phosphate detection. In kind it is biochemical.
The target of the next assay is T1, BsFtsZ (Bacillus subtilis, UniProt P17865).
T1 sequence (P17865 1-382): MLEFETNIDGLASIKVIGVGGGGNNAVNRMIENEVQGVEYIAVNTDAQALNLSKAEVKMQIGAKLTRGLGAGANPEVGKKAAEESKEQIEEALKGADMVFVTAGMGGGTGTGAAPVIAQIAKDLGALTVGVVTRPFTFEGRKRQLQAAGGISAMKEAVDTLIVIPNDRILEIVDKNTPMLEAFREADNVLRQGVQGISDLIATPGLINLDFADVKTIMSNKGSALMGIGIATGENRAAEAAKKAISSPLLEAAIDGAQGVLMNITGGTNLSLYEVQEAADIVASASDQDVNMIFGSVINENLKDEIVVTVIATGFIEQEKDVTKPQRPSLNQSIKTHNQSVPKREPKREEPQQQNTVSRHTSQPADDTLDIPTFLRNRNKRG
Nature of the assay: fluorescence anisotropy titration with FtsZ. The format is binding. On the technique in general: Fluorescence polarisation rises when a labelled molecule tumbles more slowly, as on binding a larger partner.

Sequence of EcFtsZ (P0A9A6 whole entry): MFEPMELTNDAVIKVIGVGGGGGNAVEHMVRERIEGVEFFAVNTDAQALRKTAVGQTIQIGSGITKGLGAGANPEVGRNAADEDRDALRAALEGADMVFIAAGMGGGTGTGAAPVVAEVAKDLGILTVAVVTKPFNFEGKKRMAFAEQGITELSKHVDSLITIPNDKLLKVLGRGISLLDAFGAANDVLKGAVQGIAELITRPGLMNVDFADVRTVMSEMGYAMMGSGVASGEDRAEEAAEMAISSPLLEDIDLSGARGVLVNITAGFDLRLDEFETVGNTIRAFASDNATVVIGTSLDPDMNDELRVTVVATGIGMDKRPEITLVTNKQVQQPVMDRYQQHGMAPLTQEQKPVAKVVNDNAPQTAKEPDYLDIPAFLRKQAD
Sequence of SaFtsZ (P0A031 whole entry): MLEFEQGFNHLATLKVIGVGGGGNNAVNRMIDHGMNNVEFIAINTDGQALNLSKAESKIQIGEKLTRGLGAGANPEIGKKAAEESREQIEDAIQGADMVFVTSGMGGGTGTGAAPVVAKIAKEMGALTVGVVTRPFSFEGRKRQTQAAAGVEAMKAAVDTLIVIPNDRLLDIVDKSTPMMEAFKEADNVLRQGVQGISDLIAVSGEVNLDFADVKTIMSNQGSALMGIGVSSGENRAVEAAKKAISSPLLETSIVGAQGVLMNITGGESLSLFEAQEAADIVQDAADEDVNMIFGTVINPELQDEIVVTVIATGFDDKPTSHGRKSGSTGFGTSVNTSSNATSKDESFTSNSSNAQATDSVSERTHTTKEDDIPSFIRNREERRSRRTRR

Regarding hemi-chrysophaentin [compound 2], the IC50 (usually the concentration that gives 50% inhibition) came out at 37 ± 7 µM on EcFtsZ and 38 ± 9 µM against SaFtsZ.

mant-GTP: at BsFtsZ, the Ka result is on record as “(9.9 ± 0.5) × 10^5 (Ka) M^−1”.
